# Laboratory results from PubChem BioAssay (NCI).
#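 In this assay, cells in 96-well plates receive the compound at five concentrations for 48 hours. Endpoints are linearly interpolated between the surrounding concentrations. TGI denotes the concentration required for complete inhibition of growth.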
# Key:
# Assay in all cases: NCI tumour cell line growth inhibition, 48 h
# OVCAR-8 ovarian = system: OVCAR-8 ovarian
# HCT-116 colon = system: HCT-116 colon
# SNB-19 CNS = system: SNB-19 CNS
# DMS 273 small cell lung = system: DMS 273 small cell lung
# HCC-2998 colon = system: HCC-2998 colon
# UACC-257 melanoma = system: UACC-257 melanoma
# XF 498 CNS = system: XF 498 CNS
# CAKI-1 renal = system: CAKI-1 renal
# SF-539 CNS = system: SF-539 CNS
# DLD-1 colon = system: DLD-1 colon
# MOLT-4 leukemia = system: MOLT-4 leukemia
# KM20L2 colon = system: KM20L2 colon
# SK-MEL-2 melanoma = system: SK-MEL-2 melanoma
# RPMI-8226 leukemia = system: RPMI-8226 leukemia
# SW-620 colon = system: SW-620 colon
# SF-268 CNS = system: SF-268 CNS
# HOP-62 NSCLC = system: HOP-62 NSCLC
# A549 NSCLC = system: A549 NSCLC
# SNB-75 CNS = system: SNB-75 CNS
# NCI-H23 lung = system: NCI-H23 lung
# RXF 393 renal = system: RXF 393 renal
# CCRF-CEM leukemia = system: CCRF-CEM leukemia
# 786-0 renal = system: 786-0 renal
# HCT-15 colon = system: HCT-15 colon
# TK-10 renal = system: TK-10 renal
# KM12 colon = system: KM12 colon
# COLO 205 colon = system: COLO 205 colon
# A498 renal = system: A498 renal
# EKVX NSCLC = system: EKVX NSCLC
# DMS 114 small cell lung = system: DMS 114 small cell lung
# M14 melanoma = system: M14 melanoma
# LXFL 529 NSCLC = system: LXFL 529 NSCLC
# OVCAR-4 ovarian = system: OVCAR-4 ovarian
# HOP-18 NSCLC = system: HOP-18 NSCLC
# NCI-H460 lung = system: NCI-H460 lung
# MALME-3M melanoma = system: MALME-3M melanoma
# SK-MEL-5 melanoma = system: SK-MEL-5 melanoma
# OVCAR-5 ovarian = system: OVCAR-5 ovarian
# NCI-H522 lung = system: NCI-H522 lung
# SF-295 CNS = system: SF-295 CNS
# SNB-78 CNS = system: SNB-78 CNS
# K-562 leukemia = system: K-562 leukemia
# HT29 colon = system: HT29 colon
# UACC-62 melanoma = system: UACC-62 melanoma
# OVCAR-3 ovarian = system: OVCAR-3 ovarian
# ACHN renal = system: ACHN renal
# M19-MEL melanoma = system: M19-MEL melanoma
# IGROV1 ovarian = system: IGROV1 ovarian
# UO-31 renal = system: UO-31 renal
# U251 CNS = system: U251 CNS
# NCI-H226 lung = system: NCI-H226 lung
# SK-OV-3 ovarian = system: SK-OV-3 ovarian
# SN12C renal = system: SN12C renal
# HOP-92 NSCLC = system: HOP-92 NSCLC
# HL-60(TB) leukemia = system: HL-60(TB) leukemia
# SR leukemia = system: SR leukemia
# LOX IMVI melanoma = system: LOX IMVI melanoma
structure (smiles),measurement,setting,value
Cn1c(=O)nc2n(-c3cc(Cl)ccc3Cl)c3ccccc3nc-2c1=O,TGI,OVCAR-8 ovarian,14.4 µM
same,TGI,HCT-116 colon,16.2 µM
same,TGI,SNB-19 CNS,13.3 µM
same,TGI,DMS 273 small cell lung,16.2 µM
same,TGI,HCC-2998 colon,9.32 µM
same,TGI,UACC-257 melanoma,5.2 µM
same,TGI,XF 498 CNS,18.9 µM
same,TGI,CAKI-1 renal,27.8 µM
same,TGI,SF-539 CNS,19.5 µM
same,TGI,DLD-1 colon,16.6 µM
same,TGI,MOLT-4 leukemia,28.6 µM
same,TGI,KM20L2 colon,7.9 µM
same,TGI,SK-MEL-2 melanoma,18.1 µM
same,TGI,RPMI-8226 leukemia,33.7 µM
same,TGI,SW-620 colon,6.86 µM
same,TGI,SF-268 CNS,30.7 µM
same,TGI,HOP-62 NSCLC,46.4 µM
same,TGI,A549 NSCLC,21.9 µM
same,TGI,SNB-75 CNS,24.6 µM
same,TGI,NCI-H23 lung,4.06 µM
same,TGI,RXF 393 renal,34.1 µM
same,TGI,CCRF-CEM leukemia,21.3 µM
same,TGI,786-0 renal,34.6 µM
same,TGI,HCT-15 colon,15.4 µM
same,TGI,TK-10 renal,30.4 µM
same,TGI,KM12 colon,20.1 µM
same,TGI,COLO 205 colon,6.43 µM
same,TGI,A498 renal,35.7 µM
same,TGI,EKVX NSCLC,13 µM
same,TGI,DMS 114 small cell lung,4.92 µM
same,TGI,M14 melanoma,15.2 µM
same,TGI,LXFL 529 NSCLC,28.3 µM
same,TGI,OVCAR-4 ovarian,17.8 µM
same,TGI,HOP-18 NSCLC,25.3 µM
same,TGI,NCI-H460 lung,13.4 µM
same,TGI,MALME-3M melanoma,12.2 µM
same,TGI,SK-MEL-5 melanoma,4.55 µM
same,TGI,OVCAR-5 ovarian,25.7 µM
same,TGI,NCI-H522 lung,18.8 µM
same,TGI,SF-295 CNS,21.2 µM
same,TGI,SNB-78 CNS,31.6 µM
same,TGI,K-562 leukemia,> 100 µM
same,TGI,HT29 colon,5.47 µM
same,TGI,UACC-62 melanoma,3.38 µM
same,TGI,OVCAR-3 ovarian,9.92 µM
same,TGI,ACHN renal,13.6 µM
same,TGI,M19-MEL melanoma,2.85 µM
same,TGI,IGROV1 ovarian,29.7 µM
same,TGI,UO-31 renal,26.4 µM
same,TGI,U251 CNS,20.4 µM
same,TGI,NCI-H226 lung,22 µM
same,TGI,SK-OV-3 ovarian,91.9 µM
same,TGI,SN12C renal,16.7 µM
O=C1c2c(c(-c3ccccc3)c(-c3ccccc3)c(-c3ccccc3)c2-c2ccccc2)C(=O)N1c1cccc(Br)c1,TGI,HOP-92 NSCLC,> 100 µM
same,TGI,OVCAR-8 ovarian,> 100 µM
same,TGI,HCT-116 colon,> 100 µM
same,TGI,SNB-19 CNS,> 100 µM
same,TGI,DMS 273 small cell lung,> 100 µM
same,TGI,HCC-2998 colon,> 100 µM
same,TGI,UACC-257 melanoma,> 100 µM
same,TGI,XF 498 CNS,> 100 µM
same,TGI,HL-60(TB) leukemia,> 100 µM
same,TGI,CAKI-1 renal,> 100 µM
same,TGI,SF-539 CNS,> 100 µM
same,TGI,DLD-1 colon,> 100 µM
same,TGI,MOLT-4 leukemia,> 100 µM
same,TGI,SR leukemia,> 100 µM
same,TGI,KM20L2 colon,> 100 µM
same,TGI,SK-MEL-2 melanoma,> 100 µM
same,TGI,RPMI-8226 leukemia,> 100 µM
same,TGI,SW-620 colon,> 100 µM
same,TGI,SF-268 CNS,> 100 µM
same,TGI,HOP-62 NSCLC,> 100 µM
same,TGI,LOX IMVI melanoma,> 100 µM
same,TGI,A549 NSCLC,> 100 µM
same,TGI,SNB-75 CNS,> 100 µM
same,TGI,NCI-H23 lung,> 100 µM
same,TGI,RXF 393 renal,> 100 µM
same,TGI,CCRF-CEM leukemia,> 100 µM
same,TGI,786-0 renal,> 100 µM
same,TGI,HCT-15 colon,> 100 µM
same,TGI,TK-10 renal,> 100 µM
same,TGI,KM12 colon,> 100 µM
same,TGI,COLO 205 colon,> 100 µM
same,TGI,A498 renal,> 100 µM
same,TGI,EKVX NSCLC,> 100 µM
same,TGI,DMS 114 small cell lung,> 100 µM
same,TGI,M14 melanoma,> 100 µM
same,TGI,LXFL 529 NSCLC,> 100 µM
same,TGI,OVCAR-4 ovarian,> 100 µM
same,TGI,HOP-18 NSCLC,> 100 µM
same,TGI,NCI-H460 lung,> 100 µM
same,TGI,MALME-3M melanoma,> 100 µM
same,TGI,SK-MEL-5 melanoma,> 100 µM
same,TGI,OVCAR-5 ovarian,> 100 µM
same,TGI,NCI-H522 lung,> 100 µM
same,TGI,SF-295 CNS,> 100 µM
same,TGI,SNB-78 CNS,> 100 µM
same,TGI,K-562 leukemia,> 100 µM
same,TGI,UACC-62 melanoma,> 100 µM
same,TGI,OVCAR-3 ovarian,> 100 µM
same,TGI,M19-MEL melanoma,> 100 µM
same,TGI,IGROV1 ovarian,> 100 µM
same,TGI,UO-31 renal,> 100 µM
same,TGI,U251 CNS,> 100 µM
same,TGI,NCI-H226 lung,> 100 µM
same,TGI,SK-OV-3 ovarian,> 100 µM
same,TGI,SN12C renal,> 100 µM
